Active and inactive are the calls of the source.
Key:
[1] = biological target: T1, Alkaline phosphatase, tissue-nonspecific isozyme (Homo sapiens, UniProt P05186); assay: potency against alkaline phosphatase TNAP – biochemical, luminescent, dose response, SAR follow-up (AID 1056)
T1 sequence (P05186 whole entry): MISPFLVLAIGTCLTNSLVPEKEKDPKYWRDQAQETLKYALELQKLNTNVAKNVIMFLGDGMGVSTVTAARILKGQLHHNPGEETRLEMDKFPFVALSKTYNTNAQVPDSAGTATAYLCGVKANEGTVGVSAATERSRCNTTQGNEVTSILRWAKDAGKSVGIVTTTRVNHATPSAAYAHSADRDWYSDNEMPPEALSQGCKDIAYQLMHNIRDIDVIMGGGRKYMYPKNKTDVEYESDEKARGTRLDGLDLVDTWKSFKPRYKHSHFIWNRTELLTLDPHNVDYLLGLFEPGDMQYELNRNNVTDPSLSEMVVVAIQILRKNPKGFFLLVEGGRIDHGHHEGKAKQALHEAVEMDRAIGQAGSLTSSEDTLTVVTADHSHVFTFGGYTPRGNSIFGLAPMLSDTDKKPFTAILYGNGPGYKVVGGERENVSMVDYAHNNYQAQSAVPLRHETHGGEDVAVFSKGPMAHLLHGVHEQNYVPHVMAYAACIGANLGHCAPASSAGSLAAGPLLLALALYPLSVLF

[2] = biological target: Glyceraldehyde-3-phosphate dehydrogenase (Homo sapiens, UniProt P04406)
Chain of Glyceraldehyde-3-phosphate dehydrogenase (P04406 whole entry): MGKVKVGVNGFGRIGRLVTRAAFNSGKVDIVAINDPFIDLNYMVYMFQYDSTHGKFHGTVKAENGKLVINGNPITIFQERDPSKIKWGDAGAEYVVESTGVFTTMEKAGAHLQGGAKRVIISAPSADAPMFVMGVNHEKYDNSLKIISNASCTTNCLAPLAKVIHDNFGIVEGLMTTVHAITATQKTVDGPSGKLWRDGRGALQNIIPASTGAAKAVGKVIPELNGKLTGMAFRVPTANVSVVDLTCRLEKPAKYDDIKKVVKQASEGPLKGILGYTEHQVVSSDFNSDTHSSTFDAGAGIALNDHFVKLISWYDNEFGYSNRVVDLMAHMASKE

[3] = biological target: T2, Short transient receptor potential channel 4 (Mus musculus, UniProt Q9QUQ5); assay: block of DAMGO-driven TRPC4 calcium entry – cell-based, HEK293 TRPC4/mu-opioid, Fluo-4 calcium, dose response (AID 434942); assay type: functional;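 also: potency of inhibitors blocking the TRPC4 calcium response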
T2 sequence (Q9QUQ5 whole entry): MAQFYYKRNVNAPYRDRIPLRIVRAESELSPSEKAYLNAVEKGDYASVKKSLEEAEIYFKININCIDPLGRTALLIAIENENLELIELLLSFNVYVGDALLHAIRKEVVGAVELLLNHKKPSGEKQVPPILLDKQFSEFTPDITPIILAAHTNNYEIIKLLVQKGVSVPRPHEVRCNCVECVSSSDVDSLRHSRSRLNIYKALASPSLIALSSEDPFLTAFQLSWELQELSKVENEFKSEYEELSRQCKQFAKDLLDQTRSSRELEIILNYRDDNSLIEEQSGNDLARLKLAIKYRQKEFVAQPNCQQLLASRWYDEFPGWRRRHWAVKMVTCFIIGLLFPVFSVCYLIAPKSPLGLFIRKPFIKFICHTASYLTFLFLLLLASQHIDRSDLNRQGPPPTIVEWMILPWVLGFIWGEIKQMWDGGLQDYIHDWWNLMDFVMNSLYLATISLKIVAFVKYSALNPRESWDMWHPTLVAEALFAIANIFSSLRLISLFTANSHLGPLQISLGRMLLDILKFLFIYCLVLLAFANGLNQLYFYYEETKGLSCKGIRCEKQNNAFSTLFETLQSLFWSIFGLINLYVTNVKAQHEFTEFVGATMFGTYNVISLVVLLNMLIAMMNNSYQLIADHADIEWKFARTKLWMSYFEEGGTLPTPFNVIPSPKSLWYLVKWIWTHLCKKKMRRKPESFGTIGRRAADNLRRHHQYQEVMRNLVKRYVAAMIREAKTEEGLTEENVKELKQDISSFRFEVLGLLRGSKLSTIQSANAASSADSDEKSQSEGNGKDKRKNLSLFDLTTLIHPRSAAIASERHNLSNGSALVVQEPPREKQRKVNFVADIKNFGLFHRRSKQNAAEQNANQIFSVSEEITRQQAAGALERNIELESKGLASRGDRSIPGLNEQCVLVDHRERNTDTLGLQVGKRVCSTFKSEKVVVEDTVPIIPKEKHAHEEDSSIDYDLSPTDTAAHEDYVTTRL

[4] = biological target: T2, Short transient receptor potential channel 4; assay: calcium entry via TRPC4 opening agents – cell-based, HEK293 TRPC4/mu-opioid, Fluo-4 calcium, dose response (AID 434937); assay type: functional
[5] = system: Streptococcus sp. 'group A'; assay: Streptococcus pyogenes SK(-)GAS viability under kanamycin – luminescence, BacTiterGlo, confirmation, counter-screen for streptokinase expression inhibitor project, dose response (AID 1900); assay type: functional, organism-based
[6] = NIH-3T3 fibroblast cytotoxicity, dose response, cytotoxicity control, cell-based, fluorescence, Alamar Blue, secondary assay (AID 2327); assay type: functional;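 also: NIH-3T3 mouse fibroblasts cultured with fluconazole at 8 µg/mL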
[7] = system: Vero; assay: cells; assay type: functional, cell-based; conditions: Chlorocebus sabaeus
[8] = system: Streptococcus; assay: GAS UMAA2166 growth inhibition – luminescence, BacTiterGlo, counter-screen for streptokinase expression inhibitor project, dose response (AID 1915); assay type: functional, organism-based;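 also: potency for reduction of bacterial viability or growth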
[9] = fluconazole-exposed Candida albicans growth modulators – fluorescence, retest, confirmation (AID 2467); assay type: functional, cell-based
[10] = microbe, parasite or virus in culture; assay type: functional; conditions: Mycobacterium tuberculosis
[11] = system: Vero; assay: cells; assay type: functional; conditions: Chlorocebus sabaeus
[12] = biological target: Cytochrome P450 3A4 (Homo sapiens, UniProt P08684); conditions: Potency;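 also: confirmatory qHTS run detecting inhibitors and substrates of CYP3A4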
Chain of Cytochrome P450 3A4 (P08684 whole entry): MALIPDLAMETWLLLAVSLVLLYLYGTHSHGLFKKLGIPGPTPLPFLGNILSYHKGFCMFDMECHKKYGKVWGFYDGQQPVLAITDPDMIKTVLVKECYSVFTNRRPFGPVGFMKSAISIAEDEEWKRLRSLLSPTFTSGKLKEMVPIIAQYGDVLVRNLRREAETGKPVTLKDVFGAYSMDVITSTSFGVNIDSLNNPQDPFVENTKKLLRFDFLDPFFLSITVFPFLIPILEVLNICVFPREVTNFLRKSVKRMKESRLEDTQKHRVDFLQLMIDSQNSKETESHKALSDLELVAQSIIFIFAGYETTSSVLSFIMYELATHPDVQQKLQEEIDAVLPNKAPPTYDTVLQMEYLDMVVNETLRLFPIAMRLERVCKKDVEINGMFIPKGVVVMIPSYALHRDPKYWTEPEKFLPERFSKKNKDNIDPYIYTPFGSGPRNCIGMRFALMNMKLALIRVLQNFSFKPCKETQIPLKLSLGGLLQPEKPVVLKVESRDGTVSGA

[13] = biological target: Glucose-6-phosphate 1-dehydrogenase (Homo sapiens, UniProt P11413); assay: inhibition of Homo sapiens G6PD, dose series – biochemical, fluorescence, selectivity assay for P. falciparum G6PD inhibitor project, dose response (AID 504792); assay type: functional
Chain of Glucose-6-phosphate 1-dehydrogenase (P11413 whole entry): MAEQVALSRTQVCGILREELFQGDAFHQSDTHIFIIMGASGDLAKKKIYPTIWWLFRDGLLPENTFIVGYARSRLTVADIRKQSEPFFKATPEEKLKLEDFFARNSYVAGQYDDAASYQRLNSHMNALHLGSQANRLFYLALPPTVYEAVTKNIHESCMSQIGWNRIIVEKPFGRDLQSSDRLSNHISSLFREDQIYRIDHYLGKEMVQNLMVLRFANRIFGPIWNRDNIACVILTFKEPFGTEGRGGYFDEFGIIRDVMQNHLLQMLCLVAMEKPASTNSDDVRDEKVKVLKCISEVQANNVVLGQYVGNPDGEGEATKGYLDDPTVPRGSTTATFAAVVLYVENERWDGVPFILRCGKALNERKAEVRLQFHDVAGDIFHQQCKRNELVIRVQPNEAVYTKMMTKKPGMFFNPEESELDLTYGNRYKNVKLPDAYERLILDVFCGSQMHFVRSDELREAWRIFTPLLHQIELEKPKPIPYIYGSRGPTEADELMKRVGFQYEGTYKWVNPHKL

[14] = biological target: DNA dC->dU-editing enzyme APOBEC-3G (Homo sapiens, UniProt Q9HC16); assay: Dose Response confirmation of small molecule APOBEC3G DNA Deaminase Inhibitors via a fluorescence-based single-stranded DNA deaminase assay. [Related pubchem assays (depositor defined):AID493012, AID493028]; assay type: functional
Chain of DNA dC->dU-editing enzyme APOBEC-3G (Q9HC16 whole entry): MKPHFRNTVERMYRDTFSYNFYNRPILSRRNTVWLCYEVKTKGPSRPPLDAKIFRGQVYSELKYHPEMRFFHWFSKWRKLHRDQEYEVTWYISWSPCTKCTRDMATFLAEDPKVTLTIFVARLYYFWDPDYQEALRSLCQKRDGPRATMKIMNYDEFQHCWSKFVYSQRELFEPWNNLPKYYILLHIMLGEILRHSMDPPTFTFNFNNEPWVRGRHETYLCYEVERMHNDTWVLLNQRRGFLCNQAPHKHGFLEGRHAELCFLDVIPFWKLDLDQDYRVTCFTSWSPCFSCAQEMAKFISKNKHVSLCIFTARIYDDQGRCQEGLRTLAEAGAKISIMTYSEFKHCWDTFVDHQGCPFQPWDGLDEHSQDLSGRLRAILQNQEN

[15] = Vero E6 cell cytotoxicity, dose response, cytotoxicity control for non-replicating M. tuberculosis project, secondary assay (AID 492998); assay type: functional, VeroE6; conditions: Vero C1008
[16] = cells; assay type: functional
[17] = THP-1 cell cytotoxicity, dose response, cytotoxicity control for non-replicating M. tuberculosis project (AID 489025); assay type: functional
[18] = biological target: T3, Heat shock factor protein 1 (Mus musculus, UniProt P38532); assay: decrease of HSF1-responsive luciferase luminescence – cell-based, NIH3T3, dose retest, confirmation (AID 2382); assay type: functional;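 also: NIH3T3 fibroblasts with HSF1-driven luciferase reporter stressed by proteasome inhibitor MG132; luminescence from HSF1-driven luciferase expression after 8 hours of MG132 stress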
T3 sequence (P38532 whole entry): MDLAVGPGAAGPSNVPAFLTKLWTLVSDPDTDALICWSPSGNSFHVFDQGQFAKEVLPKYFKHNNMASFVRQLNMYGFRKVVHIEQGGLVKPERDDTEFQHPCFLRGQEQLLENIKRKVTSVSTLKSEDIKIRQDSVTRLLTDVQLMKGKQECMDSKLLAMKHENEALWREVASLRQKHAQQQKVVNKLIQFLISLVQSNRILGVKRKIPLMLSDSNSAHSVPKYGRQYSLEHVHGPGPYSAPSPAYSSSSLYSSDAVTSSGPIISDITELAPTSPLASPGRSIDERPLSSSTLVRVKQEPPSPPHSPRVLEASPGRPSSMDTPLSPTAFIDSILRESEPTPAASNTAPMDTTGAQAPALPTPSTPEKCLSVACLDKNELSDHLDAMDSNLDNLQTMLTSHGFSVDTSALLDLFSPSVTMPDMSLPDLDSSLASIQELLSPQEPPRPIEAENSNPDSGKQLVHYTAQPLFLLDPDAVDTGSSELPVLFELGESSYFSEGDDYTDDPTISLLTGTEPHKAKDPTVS

[19] = biological target: FAD-linked sulfhydryl oxidase ALR (Homo sapiens, UniProt P55789); assay: ALR-catalysed DTT oxidation blockers – biochemical, H2O2 detection, luminescence, cherry-pick, dose response (AID 493248)
Chain of FAD-linked sulfhydryl oxidase ALR (P55789 whole entry): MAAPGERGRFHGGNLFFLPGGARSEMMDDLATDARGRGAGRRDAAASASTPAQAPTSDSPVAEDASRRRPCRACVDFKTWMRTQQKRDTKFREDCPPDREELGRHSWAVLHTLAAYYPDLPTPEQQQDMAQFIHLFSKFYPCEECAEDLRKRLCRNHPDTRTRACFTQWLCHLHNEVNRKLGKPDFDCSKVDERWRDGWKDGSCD

[20] = biological target: T4, Rac GTPase-activating protein 1 (Homo sapiens, UniProt Q9H0H5); assay: blockers of MgcRacGAP-driven Rac1 GTP hydrolysis – biochemical, ADP Hunter fluorescence, primary and confirmatory, confirmation (AID 624330); assay type: functional
T4 sequence (Q9H0H5 whole entry): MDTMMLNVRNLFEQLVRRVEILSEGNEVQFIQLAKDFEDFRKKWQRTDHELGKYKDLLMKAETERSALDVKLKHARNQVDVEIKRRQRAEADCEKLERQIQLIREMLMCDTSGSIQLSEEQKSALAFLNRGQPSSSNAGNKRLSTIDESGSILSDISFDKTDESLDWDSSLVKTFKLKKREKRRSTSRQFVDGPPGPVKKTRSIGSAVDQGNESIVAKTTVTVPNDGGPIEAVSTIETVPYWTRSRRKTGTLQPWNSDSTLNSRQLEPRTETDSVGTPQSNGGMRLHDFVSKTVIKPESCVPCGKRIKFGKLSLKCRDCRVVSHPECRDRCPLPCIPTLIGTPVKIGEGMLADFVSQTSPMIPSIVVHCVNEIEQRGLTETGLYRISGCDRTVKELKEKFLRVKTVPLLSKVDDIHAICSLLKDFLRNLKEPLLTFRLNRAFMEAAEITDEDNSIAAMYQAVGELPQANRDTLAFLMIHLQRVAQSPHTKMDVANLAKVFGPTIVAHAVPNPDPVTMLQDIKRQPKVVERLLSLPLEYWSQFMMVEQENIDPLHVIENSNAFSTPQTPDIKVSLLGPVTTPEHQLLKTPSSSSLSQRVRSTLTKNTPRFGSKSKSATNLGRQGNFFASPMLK

[21] = cells; assay type: functional, cell-based
[22] = biological target: Large T antigen (Simian virus 40, UniProt P03070); assay type: functional, Betapolyomavirus macacae;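 also: Confirmatory-stage PubChem screen for compounds that inhibit SV40 T antigen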
Chain of Large T antigen (P03070 whole entry): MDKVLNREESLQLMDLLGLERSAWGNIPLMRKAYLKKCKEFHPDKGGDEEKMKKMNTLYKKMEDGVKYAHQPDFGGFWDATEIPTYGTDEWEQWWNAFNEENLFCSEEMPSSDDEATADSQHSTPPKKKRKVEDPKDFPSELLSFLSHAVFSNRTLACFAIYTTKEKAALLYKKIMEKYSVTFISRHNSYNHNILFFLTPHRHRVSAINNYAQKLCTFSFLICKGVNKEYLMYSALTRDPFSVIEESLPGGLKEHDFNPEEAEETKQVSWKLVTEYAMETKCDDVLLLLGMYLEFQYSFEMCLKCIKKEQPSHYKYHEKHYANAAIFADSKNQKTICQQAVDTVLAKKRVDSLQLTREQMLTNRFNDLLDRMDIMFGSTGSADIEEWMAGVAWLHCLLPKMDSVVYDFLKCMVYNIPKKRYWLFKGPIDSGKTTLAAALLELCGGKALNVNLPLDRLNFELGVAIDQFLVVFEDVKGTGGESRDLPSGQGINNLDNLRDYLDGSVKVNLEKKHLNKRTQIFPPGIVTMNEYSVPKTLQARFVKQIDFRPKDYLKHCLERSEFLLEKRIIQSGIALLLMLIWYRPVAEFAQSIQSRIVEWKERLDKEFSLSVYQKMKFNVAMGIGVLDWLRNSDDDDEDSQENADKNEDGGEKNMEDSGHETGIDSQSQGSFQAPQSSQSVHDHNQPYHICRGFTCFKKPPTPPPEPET

[23] = cells; assay type: functional, cell-based; remark: listed apart in the source
[24] = alpha-synuclein stem-loop luciferase translation blockers – H4 neuroglioma cells, luminescence, confirmation (AID 1988); assay type: functional, cell-based
[25] = biological target: Nonstructural protein 1 (Influenza A virus, UniProt Q194T2); assay type: functional, Influenza A virus (A/California/07/2009(H1N1))
Chain of Nonstructural protein 1 (Q194T2 whole entry): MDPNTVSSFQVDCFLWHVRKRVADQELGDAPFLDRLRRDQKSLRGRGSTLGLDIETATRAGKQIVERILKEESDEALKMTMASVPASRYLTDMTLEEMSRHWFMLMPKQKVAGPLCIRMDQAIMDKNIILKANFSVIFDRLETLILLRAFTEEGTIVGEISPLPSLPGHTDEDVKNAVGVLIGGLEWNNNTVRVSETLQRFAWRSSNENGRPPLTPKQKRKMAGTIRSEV

[26] = Luminescence Cell-Based Dose Response HTS to Identify Inhibitors of 5'UTR Stem-Loop Driven Prion Protein mRNA Translation in H4 Neuroglioblastoma Cells. [Related pubchem assays: 1827 (Project Summary), 1813 (Primary HTS)]; assay type: functional
[27] = luciferase reporter signal suppression in cells – H4 neuroglioma cells, luminescence, dose response (AID 1990); assay type: functional, cell-based
[28] = Dd2 malaria parasite growth inhibition potency – SYBR Green, dry powder samples, dose response (AID 1159566); assay type: functional, cell-based;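 also: potency for growth inhibition with lower SYBR green DNA signal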
[29] = growth inhibition of PfATP4-mutant resistant parasites – NITD609-resistant line, SYBR Green, dry powder, dose response (AID 1159571); assay type: functional, cell-based;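 also: parasites synchronized at ring stage by sorbitol before testing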
[30] = toxicity to human HepG2 hepatoma cells – cell-based, plate reader, dry powder samples, cytotoxicity control, dose response (AID 1159569); assay type: functional;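 also: inhibitor potency with signal falling toward the positive control level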
[31] = P. falciparum Dd2 growth inhibitors, dose response, SYBR Green, cherry-picked samples (AID 1159567); assay type: functional, cell-based
[32] = growth inhibition of yeast DHODH-expressing 3D7 parasites – SYBR Green, dry powder samples, dose response (AID 1159570); assay type: functional, cell-based;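 also: parasite growth measured after 72 hours of compound exposure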
[33] = toxicity to human hepatoma HepG2 cells – cell-based, cherry-picked samples, cytotoxicity control, dose response (AID 1159577); assay type: functional

For `O=C(O)c1cc(-c2ccc3c(c2)OCCO3)n[nH]1`, the IC50 [1] was 49.8 µM (active) and the IC50 [2] was > 100 µM (not active).
For `O=c1c2ccccc2[nH]c(=S)n1Cc1cccnc1`, the EC50 [3] was 3.35 µM (active) and the EC50 [4] was 2.66 µM (active).
For `CC(C)(C)c1ccc(C(=O)NC(=S)NNC(=O)COc2ccccc2)cc1`, the EC50 [5] was 0.067 µM (active), the EC50 [6] was > 150 µM (inactive) and the IC50 [7] was 23 µM (active). For the same molecule, the EC50 [8] was 1.76 µM (active), the EC50 [9] was 1.58 µM (active) and the CC50 [10] was 34.1 µM (active). The CC50 [11] was > 25 µM (active), the EC50 [3] was 6.68 µM (active) and the EC50 [4] was 5.96 µM (active).
With `CC1C(=O)OC2C1CC[C@@]1(C)C=CC(=O)[C@@]3(C)O[C@@]213` (stereo not given in full) the AC50 [12] was 39.8 µM (inconclusive).
For `COC(=O)[C@H](CCSC)NC(=O)c1cc2c3ccccc3nc-2c[nH]1`, the IC50 [13] was > 80 µM (inactive) and the IC50 [14] was 59.6 µM (active).
For `Cn1c(N)c(C(=O)COC(=O)c2cc(C(F)(F)F)nc3ccccc23)c(=O)n(Cc2ccccc2)c1=O`, the AC50 [12] was 15.8 µM (inconclusive).
For `COc1ccccc1NC(=O)c1ccc([N+](=O)[O-])o1`, the CC50 [15] was 5.96 µM (active), the IC50 [16] was 9.55 µM (active) and the CC50 [17] was 17.5 µM (active). The EC50 [18] was > 195 µM (not active).
With `O=S(=O)(N=S1CC=CCN1S(=O)(=O)c1ccccc1)c1ccccc1` (stereo not given) the AC50 [19] was 2.19 µM (active), the IC50 [14] was 2.32 µM (active) and the IC50 [20] was 105 µM (active).
With `COc1cccc(Cn2c(Oc3ccccc3)nc3c2c(=O)n(C)c(=O)n3C)c1` the EC50 [3] was 7.5 µM (active).
For `CN(CC(=O)NC1CCCc2ccccc21)C1CCCCC1` (stereo not given), the EC50 [3] was 13.3 µM (active).
With `Cc1ccccc1Nc1c(-c2ccccn2)nc2ccccn12` the AC50 [19] was 1.37 µM (active), the EC50 [21] was 221 µM (active) and the IC50 [22] was < 0.39 µM (active). The CC50 [15] was 3.7 µM (active), the IC50 [16] was 1.75 µM (active) and the EC50 [23] was > 350 µM (not active). The EC50 [24] was 10.5 µM (active), the IC50 [25] was 14.7 µM (active) and the CC50 [17] was 13.7 µM (active). For the same molecule, the EC50 [26] was 10.4 µM (active) and the EC50 [27] was 11 µM (active).
For `c1cnc(-c2cccnc2)nc1`, the IC50 [1] was > 100 µM (inactive) and the IC50 [2] was > 100 µM (not active).
For `O=C(N/N=C/c1cc([N+](=O)[O-])ccc1O)C12CC3CC(CC(C3)C1)C2`, the CC50 [15] was > 20 µM (active), the IC50 [16] was 16.3 µM (active) and the CC50 [17] was 21 µM (active).
With `COc1ccc2c3c([nH]c2c1)[C@H](CO)N(Cc1ccc(Cl)cc1)CC31CCN(Cc2nccs2)CC1` the AC50 [28] was 0.781 µM (active), the AC50 [29] was 1.11 µM (active) and the AC50 [30] was 25.8 µM (active). The AC50 [31] was 1.22 µM (active), the AC50 [32] was 1.22 µM (active) and the AC50 [33] was > 39 µM (inactive).
With `CCn1cnc(-c2cccnc2)c1` the IC50 [1] was > 100 µM (inactive) and the IC50 [2] was > 100 µM (not active).

From ChEMBL document CHEMBL1201862, “PubChem BioAssay data set” (2004)
